In test [1] the target is Sigma non-opioid intracellular receptor 1 (Cavia porcellus, UniProt Q60492). Kind of test: Displacement of [3H]-(+)-pentazocine from sigma1 receptor in guinea pig brain membranes incubated for 150 mins by scintillation counting method. Format: cell membranes.
The nature of test [2]: Selectivity ratio of Ki for sigma2 receptor (unknown origin) to Ki for sigma1 receptor in guinea pig brain cortex membranes. Format: cell membranes.
The target of test [3] is Sigma intracellular receptor 2 (Homo sapiens, UniProt Q5BJF2). Kind of test: Displacement of [3H]-DTG from sigma2 receptor (unknown origin) incubated for 120 mins by scintillation counting method.
The test system of test [4] is MCF7. Kind of test: Cytotoxicity against human MCF7 cells assessed as reduction in cell viability incubated for 24 hrs by MTT assay. Format: functional, cell-based. The following applies: MCF7, 24 h.
The test system of test [5] is Mus musculus. Kind of test: Analgesic activity in formalin-induced nociception mouse model assessed as decrease in time spent on licking or flinching formalin injected right hind paw during early nociceptive phase at 2.5 to 5 mg/kg, ip administered 15 mins prior to formalin challenge measured at 5 mins interval for 10 mins. Type of test: functional, organism-based.

Test [6] deals with MCF7. Kind of test: Induction of apoptosis in human MCF7 cells assessed as increase in caspase-3 activity at 20 uM incubated for 24 hrs by Ac-DEVD-pNA substrate-based colorimetric assay. Format: functional, cell-based.
For test [7], the system named is Mus musculus. Briefly: Analgesic activity in formalin-induced nociception mouse model assessed as decrease in time spent on licking or flinching formalin injected right hind paw during inflammatory phase at 2.5 to 5 mg/kg, ip administered 15 mins prior to formalin challenge measured at 5 mins interval for 10 to 60 mins. Type of test: functional, organism-based.

Activity calls are given as the source filed them. No cut-off for these calls is given here.

Sigma intracellular receptor 2, sequence (Q5BJF2 whole entry): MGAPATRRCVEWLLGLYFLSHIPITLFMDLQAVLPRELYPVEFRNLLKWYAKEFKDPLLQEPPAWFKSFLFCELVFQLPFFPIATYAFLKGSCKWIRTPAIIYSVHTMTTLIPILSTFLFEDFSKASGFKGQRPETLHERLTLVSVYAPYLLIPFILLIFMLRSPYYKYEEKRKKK
Sigma non-opioid intracellular receptor 1, sequence (Q60492 whole entry): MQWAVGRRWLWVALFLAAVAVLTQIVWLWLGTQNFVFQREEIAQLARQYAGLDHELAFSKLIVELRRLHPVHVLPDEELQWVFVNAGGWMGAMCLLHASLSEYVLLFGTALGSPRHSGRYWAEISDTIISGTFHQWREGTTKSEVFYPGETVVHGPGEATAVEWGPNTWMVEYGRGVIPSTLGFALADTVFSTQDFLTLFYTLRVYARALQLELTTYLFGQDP

As to `Clc1ccc2sc(SCCCCN3CCCCCC3)nc2c1`, the Ki was 8.44 nM in test [1] and 21.8 nM in test [3]. Also, in test [2], the Ratio Ki is 2.6.
The matching figures for `O=c1sc2ccc(Cl)cc2n1CCN1CCCCCC1`: 180 nM, 1670 nM and 9.3.
The matching figures for `O=c1oc2ccc(Cl)cc2n1CCCN1CCCCCC1`: 6.3 nM, 64.1 nM and 10.2.
The matching figures for `Clc1ccc2oc(SCCN3CCCCCC3)nc2c1`: 1.93 nM, 87 nM and 45.
Consider `O=c1sc2ccc(Cl)cc2n1CCCCN1CCCCCC1`, for which the Ki in test [1] came out at 0.78 nM; in test [3] it was 7.61 nM. Moreover, the IC50 with MCF7 [4] is 27800 nM. Further, in the test on Mus musculus [5], the outcome was inactive. Also, the result in the test on MCF7 [6] and in the test on Mus musculus [7] was Active. Further, the Ratio Ki in test [2] is 9.7.
In the case of `Clc1ccc2oc(SCCCN3CCCCCC3)nc2c1`, the Ki was determined as 2.35 nM in test [1] and 16 nM in test [3]. The Ratio Ki in test [2] amounted to 6.2.
With `O=c1oc2ccc(Cl)cc2n1CCN1CCCCCC1`, the Ki was determined as 99 nM in test [1] and 652 nM in test [3]. Moreover, in test [2], the Ratio Ki was determined as 6.6.
Consider `O=C(CCCN1CCC(O)(c2ccc(Cl)cc2)CC1)c1ccc(F)cc1` [HALOPERIDOL], for which the IC50 with MCF7 [4] turned out to be 20200 nM. In addition, in the test on MCF7 [6], the result was Active.
Take `O=c1sc2ccc(Cl)cc2n1CCCN1CCCCCC1`: the Ki in test [1] came to 7.4 nM; in test [3], 68.8 nM. The Ratio Ki in test [2] stood at 9.3.
The matching figures for `Clc1ccc2oc(SCCCCN3CCCCCC3)nc2c1`: 2.4 nM, 11 nM and 4.6.
As for `Clc1ccc2sc(SCCN3CCCCCC3)nc2c1`, the values for the inhibition constant (Ki) in test [1] and in test [3] were 407 nM and more than 1000 nM, respectively. In addition, the Ratio Ki in test [2] was more than 2.4.
With `Clc1ccc2sc(SCCCN3CCCCCC3)nc2c1`, the Ki was 1.27 nM in test [1] and 7.9 nM in test [3]. Further, in the test with MCF7 [4], the IC50 turned out to be 20500 nM. The outcome with Mus musculus [5] and in the test with Mus musculus [7] was inactive. Besides, the outcome in the test on MCF7 [6] was Active. The Ratio Ki in test [2] was determined as 6.8.
As for `O=c1oc2ccc(Cl)cc2n1CCCCN1CCCCCC1`, the Ki was 2.3 nM in test [1] and 3.8 nM in test [3]. Moreover, the IC50 with MCF7 [4] was 44800 nM. Moreover, the result with Mus musculus [5], in the test on MCF7 [6] and with Mus musculus [7] was Active. In test [2], the Ratio Ki is 1.6.
Consider `CC[C@H]1C[C@@H]2C[C@H]3c4[nH]c5ccc(OC)cc5c4CC[N@@](C2)[C@@H]13`, for which the IC50 in the test with MCF7 [4] was 29600 nM. Also, the result in the test on MCF7 [6] was Active.

These data come from ChEMBL document CHEMBL4393688, “Synthesis, in vitro and in vivo characterization of new benzoxazole and benzothiazole-based sigma receptor ligands” (Eur J Med Chem, 2019).
